Source: ChEMBL document CHEMBL1147560, “Thioxanthene-derived analogs as sigma(1) receptor ligands” (Bioorg Med Chem Lett, 2004)

Assays:
[1] = biological target: T1, Sigma non-opioid intracellular receptor 1 (Homo sapiens, UniProt Q99720); test: Binding affinity for Sigma receptor type 1,using [3H](+)-pentazocine as radioligand
[2] = biological target: T1, Sigma non-opioid intracellular receptor 1; test: Selectivity for sigma 2 compared to sigma 1 receptor
Sigma 2 receptor = test: Binding affinity of compound was measured towards Sigma receptor type 2 by using [3H]ditolylguanidine as radioligand; set-up: species or system Cavia porcellus
[3] = Binding affinity for Sigma receptor type 1,using [3H](+)-pentazocine as radioligand

T1 sequence (Q99720 whole entry): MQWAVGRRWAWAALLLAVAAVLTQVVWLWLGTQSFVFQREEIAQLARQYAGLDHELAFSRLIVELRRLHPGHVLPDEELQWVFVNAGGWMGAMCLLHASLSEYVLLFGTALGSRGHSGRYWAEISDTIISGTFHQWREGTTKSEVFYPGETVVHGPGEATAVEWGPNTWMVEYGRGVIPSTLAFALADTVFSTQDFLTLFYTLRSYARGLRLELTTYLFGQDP

**Q.** Which Ki [1] does the source give for `CC1CCN(CCCCCc2ccccc2)CC1` here?
**A.** 0.07 nM

**Q.** With `CN(CCCC=C(c1ccccc1)c1ccccc1)CCc1ccccc1` as the compound, how does the Ki [1] read?
**A.** 0.89 nM

**Q.** And the Selectivity [2]?
**A.** 46

**Q.** What about the Ki (Sigma 2 receptor) of the same compound?
**A.** 41 nM

**Q.** Which Ki (Sigma 2 receptor) does the source give for `CC1CCN(CCCC=C(c2ccccc2)c2ccccc2)CC1` here?
**A.** 25 nM

**Q.** Which Ki [1] does the source give for `CN1CCN(CC/C=C\c2ccccc2)CC1` here?
**A.** 29 nM

**Q.** And the Selectivity [2]?
**A.** 88

**Q.** What about the Ki (Sigma 2 receptor) of the same compound?
**A.** 2540 nM

**Q.** Which Ki [1] does the source give for `CCN(CC)CCOC(=O)C(O)(c1ccccc1)c1ccccc1` [BENACTYZINE] here?
**A.** > 1000 nM

**Q.** For `CN(CCCCCc1ccccc1)CCc1ccccc1`, which Ki [3] is on record?
**A.** 0.25 nM

**Q.** Which results are given for `CC1CCN(CCCCC(c2ccccc2)c2ccccc2)CC1`?
**A.** Ki [1]: 0.09 nM; Selectivity [2]: 189; Ki (Sigma 2 receptor): 17 nM

**Q.** With `CCCC(C(=O)OCCN(CC)CC)(c1ccccc1)c1ccccc1` [PROADIFEN] as the compound, how does the Ki (Sigma 2 receptor) read?
**A.** 1100 nM

**Q.** For `c1ccc(CCNCCCCC(c2ccccc2)c2ccccc2)cc1`, which Ki [1] is on record?
**A.** 0.66 nM

**Q.** What about the Selectivity ([2]; Cavia porcellus) of the same compound?
**A.** 152

**Q.** What about the Ki (Sigma 2 receptor) of the same compound?
**A.** 100 nM

**Q.** Which results are given for `CC1CCN(CCC=C(c2ccccc2)c2ccccc2)CC1`?
**A.** Ki [1]: 1.9 nM; Selectivity [2]: 15; Ki (Sigma 2 receptor): 28 nM

**Q.** What does the source list for `CC1CCN(CCC=C2c3ccccc3Sc3ccccc32)CC1`?
**A.** Ki [1]: 0.8 nM; Selectivity [2]: 33; Ki (Sigma 2 receptor): 26 nM

**Q.** For `CCN(CC)CCCCC(O)(c1ccccc1)c1ccccc1`, which Ki [1] is on record?
**A.** 12 nM

**Q.** And the Selectivity [2]?
**A.** 67

**Q.** What about the Ki (Sigma 2 receptor) of the same compound?
**A.** 800 nM

**Q.** Which results are given for `CN1CCN(CCCCc2ccccc2)CC1`?
**A.** Ki [1]: 20 nM; Selectivity [2]: 45; Ki (Sigma 2 receptor): 900 nM

**Q.** For `C(CCCNCCc1ccccc1)=C(c1ccccc1)c1ccccc1`, which Ki (Sigma 2 receptor) is on record?
**A.** 142 nM

**Q.** For `CCN(CC)CCCCC(c1ccccc1)c1ccccc1`, which Ki [1] is on record?
**A.** 1.4 nM

**Q.** And the Selectivity [2]?
**A.** 36

**Q.** And the Ki (Sigma 2 receptor)?
**A.** 51 nM

**Q.** With `CN(CCCCC(c1ccccc1)c1ccccc1)CCc1ccccc1` as the compound, how does the Ki [1] read?
**A.** 0.48 nM

**Q.** And the Selectivity [2]?
**A.** 67

**Q.** What about the Ki (Sigma 2 receptor) of the same compound?
**A.** 32 nM

**Q.** What does the source list for `CN1CCN(CC/C=C/c2ccccc2)CC1`?
**A.** Ki [1]: 29 nM; Selectivity [2]: 45; Ki (Sigma 2 receptor): 1300 nM

**Q.** Which Ki [1] does the source give for `CC1CCN(CCCC(c2ccccc2)c2ccccc2)CC1` here?
**A.** 1.1 nM

**Q.** What about the Selectivity [2] of the same compound?
**A.** 25

**Q.** And the Ki (Sigma 2 receptor)?
**A.** 28 nM
